Source: patent US20260242478A1, “ANTIBODIES FOR TARGETING PSMA AND CD28 AND USES THEREOF” (Janux Therapeutics, Inc., priority 2023, published 2026)
Where no end group is shown, it is not given here.

Tested on: anti-CD28 scFv
Assay: Panning ELISA of clonal phage, anti-CD28 scFv, with or without CD28 soluble protein (Peptide-9 library)
Type: binding
Settings: for Background signal: background (no anti-CD28 scFv)
Method: Clonal phage were harvested as crude supernatants and screened via standard enzyme linked immunosorbent assays (ELISAs). […] Prior to the addition of clonal phage, wells were incubated with blocking buffer and CD28 soluble protein or blocking buffer alone. Without washing or aspirating, clonal phage supernatants were then added to the wells and incubated for a short time. Wells were then washed followed by detection of bound phage using a horse radish peroxidase conjugated anti-M13 antibody. Clonal phage of interest were then sent for sequence analysis.

Sequence of anti-CD28 scFv (as listed by the source): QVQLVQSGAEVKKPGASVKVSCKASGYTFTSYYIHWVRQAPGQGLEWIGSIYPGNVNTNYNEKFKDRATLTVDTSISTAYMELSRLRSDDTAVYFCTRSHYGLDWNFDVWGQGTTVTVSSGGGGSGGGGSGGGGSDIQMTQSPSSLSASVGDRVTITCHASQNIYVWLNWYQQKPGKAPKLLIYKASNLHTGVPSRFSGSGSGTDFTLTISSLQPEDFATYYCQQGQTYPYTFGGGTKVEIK

Substance: Phage-61 (MVSCPTTMWNRCFN; left off: large carriers)
- Background signal (Peptide-9 library): 0.079

Substance: Phage-341 (MDWCPRHLWDECFN)
- Background signal: 0.084

Substance: Phage-409 (LHWCPITMWTYCYY)
- Background signal (Peptide-9 library): 0.229

Substance: Phage-286 (MERCPRYLWHMCYS)
- Background signal: 0.164

Substance: Phage-417 (IYWCPTAMWNRCSA)
- Background signal (Peptide-9 library): 0.086

Substance: Phage-307 (MDWCPRYLWPVCFH)
- Background signal: 0.179

Substance: Phage-414 (LYWCPRDMWAYCYS)
- Background signal (Peptide-9 library): 0.068

Substance: Phage-109 (MDWCPKNLWHVCFN)
- Background signal (Peptide-9 library): 0.081

Substance: Phage-136 (MHWCPIYLWDECFN)
- Background signal (Peptide-9 library): 0.071

Substance: Phage-384 (IMWCPTSLWNRCVT)
- Background signal: 0.104

Substance: Phage-120 (MDWCPRDLWHACFS)
- Background signal (Peptide-9 library): 0.074

Substance: Phage-270 (MDWCPRDFWAFCFF; cysteine pairing not given here; also: large carriers left off)
- Background signal: 0.118

Substance: Phage-283 (MDWCPRHLWNECFN)
- Background signal: 0.079

Substance: Phage-322 (MDWCPRHLWIECFN)
- Background signal: 0.339

Substance: Phage-442 (IYWCPIDRWNDCYN)
- Background signal (Peptide-9 library): 0.177

Substance: Phage-342 (MDWCPRNLWHECFA)
- Background signal: 0.067

Substance: Phage-338 (MDWCPRFLWNECFY)
- Background signal: 0.143

Substance: Phage-431 (MAWCPADQWHECFN)
- Background signal (Peptide-9 library): 0.076

Substance: Phage-53 (MDWCPMHLWNKCFN; not fully specified; cysteine pairing not given here)
- Background signal (Peptide-9 library): 0.071

Substance: Phage-62 (MDWCPSYLWNECFF; left off: large carriers)
- Background signal (Peptide-9 library): 0.065

Substance: Phage-40 (MDWCPIDMWDQCFN; not fully specified; cysteine pairing not given here)
- Background signal (Peptide-9 library): 0.061

Substance: Phage-408 (MFWCPKDMWAECFA)
- Background signal (Peptide-9 library): 0.099

Substance: Phage-325 (MDWCPAYLWDECFA)
- Background signal: 0.096

Substance: Phage-121 (MDWCPRDLWHVCFF)
- Background signal (Peptide-9 library): 0.068

Substance: Phage-339 (MDWCPRTLWDQCFF)
- Background signal: 0.088

Substance: Phage-292 (MDWCPRALWDHCFF)
- Background signal: 0.081

Substance: Phage-368 (MSWCPPYLWTVCYN)
- Background signal: 0.176

Substance: Phage-128 (MDWCPRDLWIECFF)
- Background signal (Peptide-9 library): 0.084

Substance: Phage-51 (MDWCPMDLWDYCFN; not fully specified; cysteine pairing not given here)
- Background signal (Peptide-9 library): 0.071

Substance: Phage-321 (MDWCPRDLWYVCFA)
- Background signal: 0.095

Substance: Phage-362 (MDWCPRILWHECFS)
- Background signal: 0.064

Substance: Phage-369 (MHWCPRDLWYECFA)
- Background signal: 0.072

Substance: Phage-402 (MDWCPRHMWHECFH)
- Background signal (Peptide-9 library): 0.067

Substance: Phage-406 (MNWCPIDMWTECFN)
- Background signal (Peptide-9 library): 0.245

Substance: Phage-94 (MDWCPRDLWSLCFY)
- Background signal (Peptide-9 library): 0.065

Substance: Phage-324 (MDWCPRHLWYECFS)
- Background signal: 0.216

Substance: Phage-122 (MDWCPRDLWDQCYA)
- Background signal (Peptide-9 library): 0.059

Substance: Phage-277 (MDWCPRSHWSECFS; not fully specified; cysteine pairing not given here)
- Background signal: 0.080

Substance: Phage-356 (MDWCPMYLWDECFF)
- Background signal: 0.082

Substance: Phage-50 (MDWCPPYLWNVCFS; not fully specified; cysteine pairing not given here)
- Background signal (Peptide-9 library): 0.063

Substance: Phage-273 (IDWCPTAGWTYCWF; not fully specified; cysteine pairing not given here)
- Background signal: 0.071
- CD28 scFv signal in presence of CD28 (binding to anti-CD28 scFv in presence of CD28 soluble protein): 0.075

Substance: Phage-347 (MDWCPLFLWDQCFN)
- Background signal: 0.116

Substance: Phage-271 (MDWCPTSFWNRCFH; not fully specified; cysteine pairing not given here; also: large carriers left off)
- Background signal: 0.102

Substance: Phage-45 (MDWCPRPLWHECFS; not fully specified; cysteine pairing not given here)
- Background signal (Peptide-9 library): 0.078

Substance: Phage-65 (MDWCPMYLWNECFN; left off: large carriers)
- Background signal (Peptide-9 library): 0.064

Substance: Phage-301 (MDWCPRYLWHECFF)
- Background signal: 0.082

Substance: Phage-450 (EDWCPTDVWPYCFS)
- Background signal (Peptide-9 library): 0.100

Substance: Phage-380 (MDYCPSYLWHECFA)
- Background signal: 0.065

Substance: Phage-420 (MFWCPSTMWNRCFD)
- Background signal (Peptide-9 library): 0.063

Substance: Phage-441 (MDWCPRDRWDDCFF)
- Background signal (Peptide-9 library): 0.114

Substance: Phage-367 (MDWCPSFLWYECFN)
- Background signal: 0.063

Substance: Phage-426 (MFLCPSAMWNRCFY)
- Background signal (Peptide-9 library): 0.069

Substance: Phage-360 (MDWCPMFLWHECFS)
- Background signal: 0.092

Substance: Phage-352 (MDWCPIHLWYECFN)
- Background signal: 0.080

Substance: Phage-444 (VNQCTRYRWAECLN)
- Background signal (Peptide-9 library): 0.465

Substance: Phage-361 (MHWCPRHLWSECFN)
- Background signal: 0.165

Substance: Phage-300 (MDWCPRHLWFECFF)
- Background signal: 0.178

Substance: Phage-397 (MDWCPRAMWDYCFY)
- Background signal: 0.123

Substance: Phage-42 (MDWCPRHLWVHCFN; not fully specified; cysteine pairing not given here)
- Background signal (Peptide-9 library): 0.071

Substance: Phage-391 (MDWCPFDMWADCFF)
- Background signal: 0.063

Substance: Phage-452 (MDWCPRDWWHMCFN)
- Background signal (Peptide-9 library): 0.100

Substance: Phage-309 (MDWCPMFLWHECFN)
- Background signal: 0.170

Substance: Phage-418 (MYWCPKYMWSECFA)
- Background signal (Peptide-9 library): 0.072

Substance: Phage-314 (MDWCPIHLWNECFN)
- Background signal: 0.074

Substance: Phage-119 (MDWCPRYLWHMCYS)
- Background signal (Peptide-9 library): 0.129

Substance: Phage-308 (MDWCPKSLWAECFN)
- Background signal: 0.395

Substance: Phage-98 (MDWCPKYLWDVCFN)
- Background signal (Peptide-9 library): 0.096

Substance: Phage-64 (MDWCPRALWAECFN; left off: large carriers)
- Background signal (Peptide-9 library): 0.068

Substance: Phage-354 (MDWCPRYLWLECFN)
- Background signal: 0.083

Substance: Phage-319 (MSWCPRDLWHLCFF)
- Background signal: 0.077

Substance: Phage-133 (MDWCPRFLWDECFF)
- Background signal (Peptide-9 library): 0.064

Substance: Phage-348 (MAWCPWYLWDECFN)
- Background signal: 0.200

Substance: Phage-340 (MSWCPIDLWSECFA)
- Background signal: 0.072

Substance: Phage-379 (MDWCPRNLWAECFS)
- Background signal: 0.061

Substance: Phage-351 (MDWCPMNLWHECFA)
- Background signal: 0.080

Substance: Phage-333 (MDWCPTDLWHECFA)
- Background signal: 0.078

Substance: Phage-435 (MDWCPRDRWVDCYA)
- Background signal (Peptide-9 library): 0.157

Substance: Phage-302 (MDWCPRYLWHVCFD)
- Background signal: 0.068

Substance: Phage-97 (MDWCPKDLWDYCFA)
- Background signal (Peptide-9 library): 0.078

Substance: Phage-438 (MDWCPMSRWAFCFD)
- Background signal (Peptide-9 library): 0.071

Substance: Phage-424 (ITQCPSTMWNRCSV)
- Background signal (Peptide-9 library): 0.067

Substance: Phage-129 (MDWCPSYLWTVCFA)
- Background signal (Peptide-9 library): 0.062

Substance: Phage-306 (MDWCPRHLWNECFA)
- Background signal: 0.068

Substance: Phage-434 (IVWCPTTQWNRCAT)
- Background signal (Peptide-9 library): 0.113

Substance: Phage-335 (MDWCPRFLWDYCFA)
- Background signal: 0.146

Substance: Phage-56 (MHWCPMDQWSNCFN; left off: large carriers)
- Background signal (Peptide-9 library): 0.062
